tested on: 521955-158-R2-J5-PDC complex spheroids, viability; test: Anticancer human tumor 521955-158-R2-J5-PDC patient-derived pancreatic carcinoma cell line growth inhibition [RAS]; conditions: second compound 0.1 µM; first compound 0.1 µM; hits give low values
How it was run: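 Multi-cell-type spheroids: tumor cells plus HUVEC endothelial cells and mesenchymal stem cells. RAS-pathway inhibitors were combined with targeted agents, each dosed in half-log steps down from clinical Cmax, or from 10 microM when Cmax was unknown.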
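Further: spheroids also contain HUVEC endothelial cells and mesenchymal stem cells as stroma; compound exposure lasted seven days before the viability read.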

Compared with `CC(C)NCC(C(=O)N1CCN(c2ncnc3c2C(C)CC3O)CC1)c1ccc(Cl)cc1` (stereo unspecified) + C=CC(=O)N1CCN(c2nc(OCC3CCCN3C)nc3c(F)c(-c4nc(N)cc(C)c4C(F)(F)F)c(Cl)cc23)C(C)C1, `O=C(c1ccc(F)c(F)c1Nc1ccc(I)cc1F)N1CC(O)([C@@H]2CCCCN2)C1` + C=CC(=O)N1CCN(c2nc(OCC3CCCN3C)nc3c(F)c(-c4nc(N)cc(C)c4C(F)(F)F)c(Cl)cc23)C(C)C1 is lower in viability, T/C: 104% for the first, 50.8% for the second.

First: CC(C)n1nc(-c2ccc3oc(N)nc3c2)c2c(N)ncnc21 + C=CC(=O)N1CCN(c2nc(OCC3CCCN3C)nc3c(F)c(-c4nc(N)cc(C)c4C(F)(F)F)c(Cl)cc23)C(C)C1
Second: C[C@@H](NC(=O)c1ncnc(N)c1Cl)c1ncc(C(=O)Nc2cc(C(F)(F)F)c(Cl)cn2)s1 + C=CC(=O)N1CCN(c2nc(OCC3CCCN3C)nc3c(F)c(-c4nc(N)cc(C)c4C(F)(F)F)c(Cl)cc23)C(C)C1
The viability, T/C of the first is lower: 31.3% for the first, 132% for the second.

`CC(Nc1ccc2c(c1)OCCn1cc(N3C(=O)OCC3C(F)F)nc1-2)C(N)=O` (stereo unspecified) + C=CC(=O)N1CCN(c2nc(OCC3CCCN3C)nc3c(F)c(-c4nc(N)cc(C)c4C(F)(F)F)c(Cl)cc23)C(C)C1 showed a viability, T/C of 54.8%.

same assay, conditions: second compound 0.1 µM; first compound 0.316 µM; hits give low values

Compared with `CC(C)NCC(C(=O)N1CCN(c2ncnc3c2C(C)CC3O)CC1)c1ccc(Cl)cc1` (stereo unspecified) + C=CC(=O)N1CCN(c2nc(OCC3CCCN3C)nc3c(F)c(-c4nc(N)cc(C)c4C(F)(F)F)c(Cl)cc23)C(C)C1, `O=C(c1ccc(F)c(F)c1Nc1ccc(I)cc1F)N1CC(O)([C@@H]2CCCCN2)C1` + C=CC(=O)N1CCN(c2nc(OCC3CCCN3C)nc3c(F)c(-c4nc(N)cc(C)c4C(F)(F)F)c(Cl)cc23)C(C)C1 is lower in viability, T/C: 113% for the first, 31.2% for the second.

Compared with `CC(Nc1ccc2c(c1)OCCn1cc(N3C(=O)OCC3C(F)F)nc1-2)C(N)=O` (stereo unspecified) + C=CC(=O)N1CCN(c2nc(OCC3CCCN3C)nc3c(F)c(-c4nc(N)cc(C)c4C(F)(F)F)c(Cl)cc23)C(C)C1, `C[C@@H](NC(=O)c1ncnc(N)c1Cl)c1ncc(C(=O)Nc2cc(C(F)(F)F)c(Cl)cn2)s1` + C=CC(=O)N1CCN(c2nc(OCC3CCCN3C)nc3c(F)c(-c4nc(N)cc(C)c4C(F)(F)F)c(Cl)cc23)C(C)C1 is higher in viability, T/C: 67.6% for the first, 112% for the second.

same assay, conditions: second compound 0.1 µM; first compound 1 µM; hits give low values

Going from `CC(C)NCC(C(=O)N1CCN(c2ncnc3c2C(C)CC3O)CC1)c1ccc(Cl)cc1` (stereo unspecified) + C=CC(=O)N1CCN(c2nc(OCC3CCCN3C)nc3c(F)c(-c4nc(N)cc(C)c4C(F)(F)F)c(Cl)cc23)C(C)C1 to `O=C(c1ccc(F)c(F)c1Nc1ccc(I)cc1F)N1CC(O)([C@@H]2CCCCN2)C1` + C=CC(=O)N1CCN(c2nc(OCC3CCCN3C)nc3c(F)c(-c4nc(N)cc(C)c4C(F)(F)F)c(Cl)cc23)C(C)C1, the viability, T/C falls from 89% to 24.1%.

Going from `CC(Nc1ccc2c(c1)OCCn1cc(N3C(=O)OCC3C(F)F)nc1-2)C(N)=O` (stereo unspecified) + C=CC(=O)N1CCN(c2nc(OCC3CCCN3C)nc3c(F)c(-c4nc(N)cc(C)c4C(F)(F)F)c(Cl)cc23)C(C)C1 to `C[C@@H](NC(=O)c1ncnc(N)c1Cl)c1ncc(C(=O)Nc2cc(C(F)(F)F)c(Cl)cn2)s1` + C=CC(=O)N1CCN(c2nc(OCC3CCCN3C)nc3c(F)c(-c4nc(N)cc(C)c4C(F)(F)F)c(Cl)cc23)C(C)C1, the viability, T/C rises from 45.6% to 86.5%.

same assay, conditions: second compound 0.1 µM; first compound 3.16 µM; hits give low values

Going from `CC(C)NCC(C(=O)N1CCN(c2ncnc3c2C(C)CC3O)CC1)c1ccc(Cl)cc1` (stereo unspecified) + C=CC(=O)N1CCN(c2nc(OCC3CCCN3C)nc3c(F)c(-c4nc(N)cc(C)c4C(F)(F)F)c(Cl)cc23)C(C)C1 to `CC(Nc1ccc2c(c1)OCCn1cc(N3C(=O)OCC3C(F)F)nc1-2)C(N)=O` (stereo unspecified) + C=CC(=O)N1CCN(c2nc(OCC3CCCN3C)nc3c(F)c(-c4nc(N)cc(C)c4C(F)(F)F)c(Cl)cc23)C(C)C1, the viability, T/C falls from 67.1% to 28.8%.

Compound `C[C@@H](NC(=O)c1ncnc(N)c1Cl)c1ncc(C(=O)Nc2cc(C(F)(F)F)c(Cl)cn2)s1` + C=CC(=O)N1CCN(c2nc(OCC3CCCN3C)nc3c(F)c(-c4nc(N)cc(C)c4C(F)(F)F)c(Cl)cc23)C(C)C1 has a viability, T/C of 73.1%.

same assay, conditions: second compound 0.1 µM; first compound 10 µM; hits give low values

First: CC(C)NCC(C(=O)N1CCN(c2ncnc3c2C(C)CC3O)CC1)c1ccc(Cl)cc1 (stereo unspecified) + C=CC(=O)N1CCN(c2nc(OCC3CCCN3C)nc3c(F)c(-c4nc(N)cc(C)c4C(F)(F)F)c(Cl)cc23)C(C)C1
Second: CC(Nc1ccc2c(c1)OCCn1cc(N3C(=O)OCC3C(F)F)nc1-2)C(N)=O (stereo unspecified) + C=CC(=O)N1CCN(c2nc(OCC3CCCN3C)nc3c(F)c(-c4nc(N)cc(C)c4C(F)(F)F)c(Cl)cc23)C(C)C1
The viability, T/C of the first is higher: 49.6% for the first, 19.4% for the second.

Compound `C[C@@H](NC(=O)c1ncnc(N)c1Cl)c1ncc(C(=O)Nc2cc(C(F)(F)F)c(Cl)cn2)s1` + C=CC(=O)N1CCN(c2nc(OCC3CCCN3C)nc3c(F)c(-c4nc(N)cc(C)c4C(F)(F)F)c(Cl)cc23)C(C)C1 has a viability, T/C of 54.8%.

same assay, conditions: second compound 0.316 µM; first compound 0.000316 µM; hits give low values

`CC(C)n1nc(-c2ccc3oc(N)nc3c2)c2c(N)ncnc21` + C=CC(=O)N1CCN(c2nc(OCC3CCCN3C)nc3c(F)c(-c4nc(N)cc(C)c4C(F)(F)F)c(Cl)cc23)C(C)C1 showed a viability, T/C of 141%.

same assay, conditions: second compound 0.316 µM; first compound 0.001 µM; hits give low values

Work on `CC(C)n1nc(-c2ccc3oc(N)nc3c2)c2c(N)ncnc21` + C=CC(=O)N1CCN(c2nc(OCC3CCCN3C)nc3c(F)c(-c4nc(N)cc(C)c4C(F)(F)F)c(Cl)cc23)C(C)C1 yielded a viability, T/C of 134%.

same assay, conditions: second compound 0.316 µM; first compound 0.00316 µM; hits give low values

Compared with `CC(C)n1nc(-c2ccc3oc(N)nc3c2)c2c(N)ncnc21` + C=CC(=O)N1CCN(c2nc(OCC3CCCN3C)nc3c(F)c(-c4nc(N)cc(C)c4C(F)(F)F)c(Cl)cc23)C(C)C1, `O=C(c1ccc(F)c(F)c1Nc1ccc(I)cc1F)N1CC(O)([C@@H]2CCCCN2)C1` + C=CC(=O)N1CCN(c2nc(OCC3CCCN3C)nc3c(F)c(-c4nc(N)cc(C)c4C(F)(F)F)c(Cl)cc23)C(C)C1 is higher in viability, T/C: 91.3% for the first, 97% for the second.

same assay, conditions: second compound 0.316 µM; first compound 0.01 µM; hits give low values

First: CC(C)n1nc(-c2ccc3oc(N)nc3c2)c2c(N)ncnc21 + C=CC(=O)N1CCN(c2nc(OCC3CCCN3C)nc3c(F)c(-c4nc(N)cc(C)c4C(F)(F)F)c(Cl)cc23)C(C)C1
Second: O=C(c1ccc(F)c(F)c1Nc1ccc(I)cc1F)N1CC(O)([C@@H]2CCCCN2)C1 + C=CC(=O)N1CCN(c2nc(OCC3CCCN3C)nc3c(F)c(-c4nc(N)cc(C)c4C(F)(F)F)c(Cl)cc23)C(C)C1
The viability, T/C of the first is higher: 68.9% for the first, 66.4% for the second.

same assay, conditions: second compound 0.316 µM; first compound 0.0316 µM; hits give low values

With `CC(C)NCC(C(=O)N1CCN(c2ncnc3c2C(C)CC3O)CC1)c1ccc(Cl)cc1` (stereo unspecified) + C=CC(=O)N1CCN(c2nc(OCC3CCCN3C)nc3c(F)c(-c4nc(N)cc(C)c4C(F)(F)F)c(Cl)cc23)C(C)C1 the viability, T/C was 105%.

Reference: PubChem BioAssay AID2060900 (Molecular Pharmacology Branch, DTP, NCI, 2025)
